Test results taken from patent US20060148876A1, “Nr3b1 nuclear receptor binding 3-substituted pyrazoles” (priority 2002, published 2006).
“Also recorded” adds a separate entry of the source.

Experiments:
MDA-MB-231 cells = test: Cell proliferation assay (CellTiter 96) in ER negative breast cancer cells; format: cell-based; details: 6 days treatment
Experimental: (§1) Cells were seeded in 96-well plates at a density of 15,000 (MDA-MB-231) or 10,000 (T47D) cells/100 μl/well in phenol red-free DMEM (Gibco-BRL) containing 10% (MDA-MB-231) or 2% (T47D) charcoal dextran treated FBS (Perbio Science GmbH). Treatment media containing either 0.1% DMSO (control) or 0.1% DMSO with increasing concentrations of compounds (as indicated) were added on the following day and replaced at 72 h intervals until the end of the experiment. At 6 days (MDA-MB-231) or 8 days (T47D) after initiation of the treatment a colorimetric proliferation assay was performed using CellTiter 96 Aqueous nonradioactive proliferation assay as directed by the manufacturer (Promega). Cell proliferation rates were measured as absorbance of the formazan product at 490 nm. Values are expressed as percentage of control (DMSO) and represent the means of three replicates.

T47D cells = test: Cell proliferation assay (CellTiter 96) in ER positive breast cancer cells; format: cell-based; details: 8 days treatment, 1 nM to 100 nM
Experimental: as §1

human ERR alpha (NR3B1) = test: In vitro LANCE (TR-FRET) screening for compounds which influence ERRa binding to coactivator SRC1 peptide; format: biochemical; details: see figures
Experimental: The present invention relates to a compound as described above wherein said compounds is capable of binding the NR3B1 receptor protein or a portion thereof according to SEQ ID NO. 1 (cf. FIG. 3 A to D) or a mammalian homologue thereof. The claimed compound can bind to the NR3B1 receptor protein or a portion thereof in a mixture comprising 10-200 ng of NR3B1 receptor protein or a portion thereof, preferably the ligand binding domain, 20 mM Tris/HCl at pH 7.9; 60 mM KCl; 5 mM MgCl2; 160 ng/μl BSA in a total volume of preferably about 25 μl.
For screening purposes a fragment of the open reading frame of human ERR alpha (NR3B1-(Acc. No: NM_004451)) encoding aminoacids […] was amplified by standard RT PCR procedures (see figures; SEQ ID NO. 1 and 2). […]
For screening of compound libraries as provided for by the methods shown below in the examples for substances which influence the ERRa/SRC1 interaction, the Perkin Elmer LANCE technology was applied. […] For ease of handling and reduction of background from compound fluorescence LANCE technology makes use of generic fluorophore labels and time resoved detection (for detailed description see Hemmilä I, Blomberg K and Hurskainen P, Time-resolved resonance energy transfer (TRFRET) principle in LANCE, Abstract of Papers Presented at the 3 rd Annual Conference of the Society for Biomolecular Screening, September, California (1997)). […]

Row | Structure (SMILES) | effect on proliferation of MDA-MB-231 cells (ER negative) (MDA-MB-231 cells) | effect on proliferation of T47D cells (ER positive) (T47D cells) | active as antagonist of the NR3B1 human nuclear receptor (human ERR alpha (NR3B1)) | effect on proliferation of T47D cells (ER positive) (T47D cells; listed as E2)
1 | CC/C(=C(/CC)c1ccc(O)cc1)c1ccc(O)cc1 [DES, Diethylstilbestrol] | inhibited proliferation; also recorded: inhibit growth | stimulated; also recorded: stimulate the growth | – | –
2 | Cc1cc(C)cc(-n2nc(-c3ccc(O)cc3)cc2-c2ccc(C)o2)c1 [formula 6] | – | – | active as antagonist | –
3 | Cc1ccc(C)c(-c2cc(-c3ccc(O)cc3)nn2C)c1 [formula 5] | – | – | active as antagonist | –
4 | C[C@]12CC[C@@H]3c4ccc(O)cc4CC[C@H]3[C@@H]1CC[C@@H]2O [17β-estradiol] | did not | stimulated | – | stimulate the growth
